# Assay results as given in paper PMC5377010 (International Journal for Parasitology: Drugs and Drug …, 2017).
# Assays:
# [1] = target: T1, Elongation Factor 1Bγ (gEF1Bγ) (Giardia duodenalis, UniProt A8BFR0); test: intrinsic protein fluorescence quenching; format: binding
# T1 sequence (A8BFR0 1-402): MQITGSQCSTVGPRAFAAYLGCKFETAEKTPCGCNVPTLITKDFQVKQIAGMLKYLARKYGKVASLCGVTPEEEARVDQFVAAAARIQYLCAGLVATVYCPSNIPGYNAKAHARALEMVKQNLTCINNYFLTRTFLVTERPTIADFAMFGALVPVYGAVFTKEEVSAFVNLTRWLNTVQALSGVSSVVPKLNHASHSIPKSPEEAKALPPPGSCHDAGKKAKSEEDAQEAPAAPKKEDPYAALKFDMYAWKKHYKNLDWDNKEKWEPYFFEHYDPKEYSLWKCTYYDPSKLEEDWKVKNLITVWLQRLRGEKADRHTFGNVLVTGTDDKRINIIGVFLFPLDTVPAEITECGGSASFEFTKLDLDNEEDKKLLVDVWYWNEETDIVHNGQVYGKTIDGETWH
# [2] = target: T2, Thioredoxin Reductase (gTrxR) (Giardia duodenalis, UniProt E2RU27); test: intrinsic protein fluorescence quenching; format: binding
# T2 sequence (E2RU27 1-314): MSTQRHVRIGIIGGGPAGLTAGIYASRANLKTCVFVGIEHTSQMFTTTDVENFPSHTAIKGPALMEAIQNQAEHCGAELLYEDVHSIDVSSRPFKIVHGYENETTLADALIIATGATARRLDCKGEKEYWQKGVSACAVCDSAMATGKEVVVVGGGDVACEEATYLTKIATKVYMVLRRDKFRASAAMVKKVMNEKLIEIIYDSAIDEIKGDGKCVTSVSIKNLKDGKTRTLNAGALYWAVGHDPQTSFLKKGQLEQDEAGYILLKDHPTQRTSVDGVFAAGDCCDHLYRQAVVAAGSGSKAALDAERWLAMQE
# [3] = substrate: NC(=O)C1=CN([C@@H]2O[C@H](COP(=O)(O)OP(=O)(O)OC[C@H]3O[C@@H](n4cnc5c(N)ncnc54)[C@H](OP(=O)(O)O)[C@@H]3O)[C@@H](O)[C@H]2O)C=CC1; test: purified protein; conditions: FAD NADPH-binding domain
# [4] = substrate: O=C(O)c1cc(SSc2ccc([N+](=O)[O-])c(C(=O)O)c2)ccc1[N+](=O)[O-]; test: purified protein; conditions: FAD; NADPH site partially overlapping that of NBDHEX
Kd [1],Kd [2],Molecule,Km [3],Km [4]
< 0.4 µM,0.14 ± 0.05 µM,"O=[N+]([O-])c1ccc(SCCCCCCO)c2nonc12 [NBDHEX, 6-(7-nitro-2,1,3-benzoxadiazol-4-ylthio)hexanol]",–,–
–,–,Thioredoxin Reductase (gTrxR) (Giardia lamblia ATCC 50803) (protein) MSTQRHVRIGIIGGGPAGLTAGIYASRANLKTCVFVGIEHTSQMFTTTDVENFPSHTAIKGPALMEAIQNQAEHCGAELLYEDVHSIDVSSRPFKIVHGYENETTLADALIIATGATARRLDCKGEKEYWQKGVSACAVCDSAMATGKEVVVVGGGDVACEEATYLTKIATKVYMVLRRDKFRASAAMVKKVMNEKLIEIIYDSAIDEIKGDGKCVTSVSIKNLKDGKTRTLNAGALYWAVGHDPQTSFLKKGQLEQDEAGYILLKDHPTQRTSVDGVFAAGDCCDHLYRQAVVAAGSGSKAALDAERWLAMQE,2.6 ± 0.6 µM,1500 ± 100 µM
